Source: ChEMBL document CHEMBL3045012, “Quinoline-based azetidinone and thiazolidinone analogues as antimicrobial and antituberculosis agents” (2013)
≈ marks a conversion by molar mass, not a printed value.

Experiments:
Assay type in all cases: functional
Aspergillus niger [1] = experiment: Antimicrobial activity against Aspergillus niger MTCC 282 assessed as growth inhibition after 48 hr by agar streak dilution technique; conditions: MTCC 282, 48 h
Bacillus subtilis [2] = experiment: Antimicrobial activity against Bacillus subtilis MTCC 430 assessed as diameter of growth inhibition zone after 24 hr by paper disk diffusion technique
Escherichia coli [3] = experiment: Antimicrobial activity against Escherichia coli MTCC 739 assessed as diameter of growth inhibition zone after 24 hr by paper disk diffusion technique
[4] = tested on: Mycobacterium tuberculosis; experiment: Antituberculosis activity against Mycobacterium tuberculosis H37Rv assessed as growth inhibition after 12 to 28 days by L-J MIC method; conditions: for MIC: Mycobacterium tuberculosis, H37Rv
Staphylococcus aureus [5] = experiment: Antimicrobial activity against Staphylococcus aureus MTCC 96 assessed as growth inhibition after 24 hr by agar streak dilution technique; conditions: MTCC 96, 24 h
Pseudomonas aeruginosa [6] = experiment: Antimicrobial activity against Pseudomonas aeruginosa MTCC 741 assessed as diameter of growth inhibition zone after 24 hr by paper disk diffusion technique
Bacillus subtilis [7] = experiment: Antimicrobial activity against Bacillus subtilis MTCC 430 assessed as growth inhibition after 24 hr by agar streak dilution technique; conditions: MTCC 430, 24 h
Pseudomonas aeruginosa [8] = experiment: Antimicrobial activity against Pseudomonas aeruginosa MTCC 741 assessed as growth inhibition after 24 hr by agar streak dilution technique; conditions: MTCC 741, 24 h
Escherichia coli [9] = experiment: Antimicrobial activity against Escherichia coli MTCC 739 assessed as growth inhibition after 24 hr by agar streak dilution technique; conditions: MTCC 739, 24 h
Candida albicans [10] = experiment: Antimicrobial activity against Candida albicans MTCC 183 assessed as growth inhibition after 48 hr by agar streak dilution technique; conditions: MTCC 183, 48 h
Aspergillus niger [11] = experiment: Antimicrobial activity against Aspergillus niger MTCC 282 assessed as diameter of growth inhibition zone after 24 hr by paper disk diffusion technique
Candida albicans [12] = experiment: Antimicrobial activity against Candida albicans MTCC 183 assessed as diameter of growth inhibition zone after 24 hr by paper disk diffusion technique
Staphylococcus aureus [13] = experiment: Antimicrobial activity against Staphylococcus aureus MTCC 96 assessed as diameter of growth inhibition zone after 24 hr by paper disk diffusion technique

Structure (SMILES) | MIC (Aspergillus niger [1]) | diameter of the inhibition zone (DIZ) (Bacillus subtilis [2]) | diameter of the inhibition zone (DIZ) (Escherichia coli [3]) | growth inhibition (GI) [4] | MIC [4] | MIC (Staphylococcus aureus [5]) | diameter of the inhibition zone (DIZ) (Pseudomonas aeruginosa [6]) | MIC (Bacillus subtilis [7]) | MIC (Pseudomonas aeruginosa [8]) | MIC (Escherichia coli [9]) | MIC (Candida albicans [10]) | diameter of the inhibition zone (DIZ) (Aspergillus niger [11]) | diameter of the inhibition zone (DIZ) (Candida albicans [12]) | diameter of the inhibition zone (DIZ) (Staphylococcus aureus [13])
O=C1C(Cl)C(c2cc3ccccc3nc2Cl)N1c1ccc(Cl)cc1 (configuration not stated) | 100 µg/mL (≈ 265 µM) | 24 mm | 22 mm | 95% | 100 µg/mL (≈ 265 µM) | 50 µg/mL (≈ 132 µM) | 23 mm | 12.5 µg/mL (≈ 33.1 µM) | 25 µg/mL (≈ 66.2 µM) | 50 µg/mL (≈ 132 µM) | 62.5 µg/mL (≈ 165 µM) | 22 mm | 21 mm | 21 mm
O=C1CSC(c2cc3ccccc3nc2Cl)N1c1cccc([N+](=O)[O-])c1 (configuration not stated) | 25 µg/mL (≈ 64.8 µM) | 22 mm | 22 mm | 94% | 100 µg/mL (≈ 259 µM) | 12.5 µg/mL (≈ 32.4 µM) | 24 mm | 50 µg/mL (≈ 130 µM) | 12.5 µg/mL (≈ 32.4 µM) | 62.5 µg/mL (≈ 162 µM) | 25 µg/mL (≈ 64.8 µM) | 24 mm | 23 mm | 26 mm
O=C1CSC(c2cc3ccccc3nc2Cl)N1c1ccccc1 (configuration not stated) | 100 µg/mL (≈ 293 µM) | <10 mm | <10 mm | 92% | 250 µg/mL (≈ 733 µM) | 100 µg/mL (≈ 293 µM) | 13 mm | 100 µg/mL (≈ 293 µM) | 100 µg/mL (≈ 293 µM) | 100 µg/mL (≈ 293 µM) | 100 µg/mL (≈ 293 µM) | 14 mm | <10 mm | 17 mm
Cc1ccc(N2C(=O)CSC2c2cc3ccccc3nc2Cl)cc1 (configuration not stated) | 100 µg/mL (≈ 282 µM) | 19 mm | 17 mm | 94% | 250 µg/mL (≈ 704 µM) | 100 µg/mL (≈ 282 µM) | 20 mm | 100 µg/mL (≈ 282 µM) | 62.5 µg/mL (≈ 176 µM) | 100 µg/mL (≈ 282 µM) | 100 µg/mL (≈ 282 µM) | <10 mm | 17 mm | 19 mm
O=C1C(Cl)C(c2cc3ccccc3nc2Cl)N1c1ccccc1[N+](=O)[O-] (configuration not stated) | 50 µg/mL (≈ 129 µM) | 21 mm | 22 mm | 92% | 250 µg/mL (≈ 644 µM) | 100 µg/mL (≈ 258 µM) | 21 mm | 62.5 µg/mL (≈ 161 µM) | 62.5 µg/mL (≈ 161 µM) | 100 µg/mL (≈ 258 µM) | 100 µg/mL (≈ 258 µM) | 22 mm | 20 mm | 20 mm
O=C1CSC(c2cc3ccccc3nc2Cl)N1c1ccc(F)cc1 (configuration not stated) | 12.5 µg/mL (≈ 34.8 µM) | 23 mm | 23 mm | 99% | 12.5 µg/mL (≈ 34.8 µM) | 25 µg/mL (≈ 69.7 µM) | 24 mm | 12.5 µg/mL (≈ 34.8 µM) | 25 µg/mL (≈ 69.7 µM) | 25 µg/mL (≈ 69.7 µM) | 25 µg/mL (≈ 69.7 µM) | 25 mm | 24 mm | 24 mm
Cc1cnc(N2C(=O)CSC2c2cc3ccccc3nc2Cl)s1 (configuration not stated) | 62.5 µg/mL (≈ 173 µM) | 23 mm | 24 mm | 98% | 25 µg/mL (≈ 69.1 µM) | 50 µg/mL (≈ 138 µM) | 22 mm | 50 µg/mL (≈ 138 µM) | 50 µg/mL (≈ 138 µM) | 25 µg/mL (≈ 69.1 µM) | 100 µg/mL (≈ 276 µM) | 24 mm | 23 mm | 24 mm
CC[C@@H](CO)NCCN[C@@H](CC)CO [ETHAMBUTOL] |  |  |  | 99% | 3.12 µg/mL (≈ 15.3 µM) |  |  |  |  |  |  |  |  | 
O=C(O)c1cn(C2CC2)c2cc(N3CCNCC3)c(F)cc2c1=O [CIPROFLOXACIN] |  | 31 mm | 32 mm |  |  | ≤ 1 µg/mL | 33 mm | ≤ 1 µg/mL | ≤ 1 µg/mL | ≤ 1 µg/mL |  |  |  | 30 mm
CC(=O)N1CCN(c2ccc(OCC3COC(Cn4ccnc4)(c4ccc(Cl)cc4Cl)O3)cc2)CC1 (configuration not stated) [KETOCONAZOLE] | ≤ 3 µg/mL |  |  |  |  |  |  |  |  |  | ≤ 1 µg/mL | 30 mm | 33 mm | 
